# Experimental data from patent US7304083B2, “2-iminoimidazole derivatives (2)” (Eisai R&D Management Co., Ltd., priority 2001, dated 2007).
# Structures can show the parent of a compound that is named as a salt.
# Assays:
# [1] = biological target: T1, PAR1 thrombin receptor (Homo sapiens, UniProt P25116); assay: Receptor binding assay ([3H] high affinity TRAP, platelet membrane); settings: 25 nM [3H] high affinity TRAP, 37° C. for 1 hour, read-out: RBA IC50
# T1 construct: centrifuged at 40,000 g for 60 minutes to yield platelet membrane; from tissue; host or cells: platelet membrane prepared from platelet rich plasma of a healthy adult donor
# T1 sequence (P25116 22-425): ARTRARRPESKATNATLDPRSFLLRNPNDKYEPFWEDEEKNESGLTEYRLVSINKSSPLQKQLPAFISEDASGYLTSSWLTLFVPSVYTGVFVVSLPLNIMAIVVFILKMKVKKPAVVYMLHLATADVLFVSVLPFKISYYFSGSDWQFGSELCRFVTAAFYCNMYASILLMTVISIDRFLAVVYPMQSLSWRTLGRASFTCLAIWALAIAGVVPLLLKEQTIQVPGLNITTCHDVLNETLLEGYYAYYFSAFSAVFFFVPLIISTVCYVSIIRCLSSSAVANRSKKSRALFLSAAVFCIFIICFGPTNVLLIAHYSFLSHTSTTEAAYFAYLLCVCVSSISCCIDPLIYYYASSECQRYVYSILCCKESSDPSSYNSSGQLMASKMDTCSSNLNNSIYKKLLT
# Experimental: Blood was sampled from a healthy adult who had taken no drugs for one week, and 3.8% citric acid (a ratio of 1:9 with respect to the blood) was added as an anticoagulant. The mixture was then centrifuged at 100 g for 10 minutes at room temperature to yield platelet rich plasma (PRP). The platelet precipitate obtained by centrifuging the PRP was homogenized with a Dounce homogenizer, and then centrifuged at 40,000 g for 60 minutes to yield platelet membrane. The platelet membrane was suspended in a solution prepared by adding DMSO (dimethyl sulfoxide) at 1% concentration to Buffer 1: a 50 mM Tris-HCl buffer containing 10 mM MgCl2 and 1 mM EGTA (ethylene glycol tetraacetic acid), and the suspension was stored at −80° C. Bovine albumin and DMSO were added to Buffer 1 at 0.1% and 20%, respectively, to make a preparation solution for the test compound. […] Next, 30 μl of liquid scintillator was added for measurement of the radioactivity of the plate using a Top Counter (Packard), the value of the radioactivity in the presence of the test compound minus non-specific binding portion was divided by the specific binding value (the value of the binding in the absence of the compound minus the non-specific binding portion) to determine the binding ratio, from which the IC50 value was calculated. […]
# [2] = test system: platelet rich plasma (PRP); assay: Inhibitory effects on platelet aggregation using platelet rich plasma (thrombin-induced); assay type: cell-based; settings: Homo sapiens, 0.1 h, aggregation initiated with thrombin 0.5–1.5 units/ml, area under aggregation curve over 6 minutes, read-out: Thr IC50
# Experimental: [Inhibitory Effects on Platelet Aggregation Using Platelet Rich Plasma]
# Blood was sampled from a healthy adult who had taken no drugs for one week, and 3.8% citric acid (a ratio of 1:9 with respect to the blood) was added as an anticoagulant. The mixture was then centrifuged at 100 g for 10 minutes at room temperature to yield platelet rich plasma (PRP). The PRP-removed blood was further centrifuged at 1000 g for 10 minutes to yield platelet poor plasma (PPP). The number of platelet was counted using a multi-parameter automatic hemocyte counter (K4500, Sysmex), and the PRP was diluted to approximately 300,000/μl with the PPP. The platelet aggregation activity was determined in the following manner using an Aggregometer (MC Medical). […] After addition of thrombin, the aggregation reaction was examined for 6 minutes and the areas under the aggregation curves were compared to determine the inhibition ratio, from which the IC50 value was calculated.
# [3] = test system: Vascular smooth muscle cells (rSMC); assay: Rat smooth muscle cell proliferation assay (thrombin-stimulated, MTT); assay type: cell-based; settings: 48 h; male SD rat aorta rSMC, thrombin 0.1 unit/ml, 2 days, MTT OD 590 nm; read-out: Rat SMC IC50
# Experimental: [Rat Smooth Muscle Cell Proliferation Assay]
# Vascular smooth muscle cells (rSMC) were isolated from male SD rat aorta by the explant method. DMEM medium (Sigma) containing 10% fetal bovine serum (GibcoBRL), streptomycin and penicillin was used as the proliferation medium, and subculture was carried out at 37° C. in the presence of 5% CO2. Culture was initiated after adding 100 μl of rSMC suspension in proliferation medium at a concentration of 1×10^4 cells/ml, to a 96-well plate. After 3 days, cells were rinsed twice with 100 μl of DMEM medium, the medium was exchanged with 100 μl of DMEM medium containing 0.1% albumin (starvation medium), and serum starvation was initiated. […]
# Upon adding 20 μl of MTT (3-[4,5-dimethylthiazol-2-yl]-2,5-diphenyltetrazolium bromide) dissolved in DPBS to 7.5 mg/ml, incubation was continued for 4 hours. […] As an index of cell proliferation, the OD 590 nm was measured using a plate reader (EL340, BIO-TEK Instruments Inc.), and the control OD value (OD value in the absence of the test compound) minus the OD value in the presence of the test compound was divided by the control OD value minus the blank OD value (OD value without thrombin stimulation) to determine the inhibition ratio, from which the IC50 value was calculated.
structure (smiles),measurement,setting,value
"CC(C)(C)c1cc(C(=O)Cn2ccn(Cc3ccccc3)c2=N)cc(C(C)(C)C)c1O [Example 2, 2-(3-Benzyl-2-imino-2,3-dihydro-imidazol-1-yl)-1-(3,5-di-tert-butyl-4-hydroxy-phenyl)-ethanone hydrobromide]",IC50,[1],250 nM
same,IC50,[2],2400 nM
same,IC50,[3],960 nM
"CCC(CC)CCn1ccn(CC(=O)c2cc(C(C)(C)C)c(O)c(C(C)(C)C)c2)c1=N [Example 1, 1-(3,5-Di-tert-butyl-4-hydroxy-phenyl)-2-[3-(3-ethyl-pentyl)-2-imino-2,3-dihydro-imidazol-1-yl]-ethanone hydrobromide]",IC50,[1],74 nM
same,IC50,[2],540 nM
same,IC50,[3],300 nM
